# Source: the supplement of paper PMC10307832
# Experiments:
# Assay in all cases: relative viability (nuclei count vs DMSO), 5 days (fraction); higher = more cells survive
# [1] = system: EMC-BAC-2
# Method in brief: (§1)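 Lung cancer cell lines in 1536-well plates were dosed by pin tool the day after seeding, either with one drug alone or with a fixed anchor-drug dose plus five library-drug doses (not always all listed) in √10 steps. After 5 days, cells were fixed and their nuclei stained in one step (final 0.05% Triton X-100, 1% formaldehyde, 1 ug/ml Hoechst), then counted on 4× images. Relative viability is the nuclei count in treated wells divided by that in vehicle wells. Values are medians of duplicate plates.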
# [2] = system: LK-2
# Method in brief: as §1
# [3] = system: NCI-H727
# Method in brief: as §1
# [4] = system: HOP-62
# Method in brief: as §1
# [5] = system: RERF-LC-KJ
# Method in brief: as §1
# [6] = system: NCI-H1650
# Method in brief: as §1
# [7] = system: NCI-H1651
# Method in brief: as §1
# [8] = system: NCI-H1437
# Method in brief: as §1
# [9] = system: HARA
# Method in brief: as §1
# [10] = system: HCC-366
# Method in brief: as §1
# [11] = system: COR-L23
# Method in brief: as §1
# [12] = system: CAL-12T
# Method in brief: as §1
# [13] = system: NCI-H1734
# Method in brief: as §1
# [14] = system: NCI-H596
# Method in brief: as §1
# [15] = system: PC-3 [JPC-3]
# Method in brief: as §1
# [16] = system: SK-LU-1
# Method in brief: as §1
# [17] = system: UMC-11
# Method in brief: as §1
# [18] = system: NCI-H3122
# Method in brief: as §1
# [19] = system: NCI-H2347
# Method in brief: as §1
# [20] = system: NCI-H441
# Method in brief: as §1
# [21] = system: ABC-1
# Method in brief: as §1
# [22] = system: NCI-H1755
# Method in brief: as §1
structure (smiles),measurement,setting,value
Cc1cn(-c2cc(NC(=O)c3ccc(C)c(Nc4nccc(-c5cccnc5)n4)c3)cc(C(F)(F)F)c2)cn1 [Nilotinib] + Cc1cc(Nc2cc(N3CCN(C)CC3)nc(Sc3ccc(NC(=O)C4CC4)cc3)n2)n[nH]1 [Tozasertib] (partner 0.1 µM),relative viability,[1]; first compound 0.001 µM,0.259
same,relative viability,[1]; first compound 0.003162 µM,0.258
same,relative viability,[1]; first compound 0.01 µM,0.244
same,relative viability,[1]; first compound 0.03162 µM,0.269
same,relative viability,[2]; first compound 0.001 µM,0.181
same,relative viability,[2]; first compound 0.003162 µM,0.163
same,relative viability,[2]; first compound 0.01 µM,0.155
same,relative viability,[2]; first compound 0.03162 µM,0.175
same,relative viability,[3]; first compound 0.001 µM,0.599
same,relative viability,[3]; first compound 0.003162 µM,0.624
same,relative viability,[3]; first compound 0.01 µM,0.503
same,relative viability,[3]; first compound 0.03162 µM,0.437
same,relative viability,[3]; first compound 0.1 µM,0.599
same,relative viability,[4]; first compound 0.001 µM,0.288
same,relative viability,[4]; first compound 0.01 µM,0.289
same,relative viability,[5]; first compound 0.001 µM,0.335
same,relative viability,[5]; first compound 0.003162 µM,0.416
same,relative viability,[5]; first compound 0.01 µM,0.305
same,relative viability,[5]; first compound 0.03162 µM,0.349
same,relative viability,[5]; first compound 0.1 µM,0.302
same,relative viability,[6]; first compound 0.001 µM,0.329
same,relative viability,[6]; first compound 0.003162 µM,0.355
same,relative viability,[6]; first compound 0.01 µM,0.324
same,relative viability,[6]; first compound 0.03162 µM,0.324
same,relative viability,[6]; first compound 0.1 µM,0.256
same,relative viability,[7]; first compound 0.001 µM,0.458
same,relative viability,[7]; first compound 0.003162 µM,0.584
same,relative viability,[7]; first compound 0.01 µM,0.405
same,relative viability,[7]; first compound 0.03162 µM,0.249
same,relative viability,[7]; first compound 0.1 µM,0.275
same,relative viability,[8]; first compound 0.001 µM,0.355
same,relative viability,[8]; first compound 0.003162 µM,0.499
same,relative viability,[8]; first compound 0.01 µM,0.4
same,relative viability,[8]; first compound 0.03162 µM,0.304
same,relative viability,[8]; first compound 0.1 µM,0.317
same,relative viability,[9]; first compound 0.001 µM,0.0752
same,relative viability,[9]; first compound 0.003162 µM,0.102
same,relative viability,[9]; first compound 0.01 µM,0.102
same,relative viability,[9]; first compound 0.03162 µM,0.0999
same,relative viability,[9]; first compound 0.1 µM,0.0992
same,relative viability,[10]; first compound 0.001 µM,0.0811
same,relative viability,[10]; first compound 0.003162 µM,0.057
same,relative viability,[10]; first compound 0.01 µM,0.0646
same,relative viability,[10]; first compound 0.03162 µM,0.072
same,relative viability,[10]; first compound 0.1 µM,0.05
same,relative viability,[11]; first compound 0.001 µM,0.143
same,relative viability,[11]; first compound 0.003162 µM,0.132
same,relative viability,[11]; first compound 0.01 µM,0.134
same,relative viability,[11]; first compound 0.03162 µM,0.158
same,relative viability,[11]; first compound 0.1 µM,0.126
same,relative viability,[12]; first compound 0.001 µM,0.197
same,relative viability,[12]; first compound 0.003162 µM,0.217
same,relative viability,[12]; first compound 0.01 µM,0.219
same,relative viability,[12]; first compound 0.03162 µM,0.172
same,relative viability,[12]; first compound 0.1 µM,0.211
same,relative viability,[13]; first compound 0.001 µM,0.251
same,relative viability,[13]; first compound 0.003162 µM,0.273
same,relative viability,[13]; first compound 0.01 µM,0.324
same,relative viability,[13]; first compound 0.03162 µM,0.231
same,relative viability,[13]; first compound 0.1 µM,0.214
same,relative viability,[14]; first compound 0.001 µM,0.799
same,relative viability,[14]; first compound 0.003162 µM,0.972
same,relative viability,[14]; first compound 0.01 µM,1.01
same,relative viability,[14]; first compound 0.03162 µM,0.619
same,relative viability,[14]; first compound 0.1 µM,0.68
same,relative viability,[15]; first compound 0.001 µM,0.736
same,relative viability,[15]; first compound 0.003162 µM,0.932
same,relative viability,[15]; first compound 0.01 µM,0.91
same,relative viability,[15]; first compound 0.03162 µM,0.621
same,relative viability,[15]; first compound 0.1 µM,0.426
same,relative viability,[16]; first compound 0.001 µM,0.304
same,relative viability,[16]; first compound 0.003162 µM,0.292
same,relative viability,[16]; first compound 0.01 µM,0.287
same,relative viability,[16]; first compound 0.03162 µM,0.293
same,relative viability,[16]; first compound 0.1 µM,0.286
same,relative viability,[17]; first compound 0.001 µM,0.191
same,relative viability,[17]; first compound 0.003162 µM,0.19
same,relative viability,[17]; first compound 0.01 µM,0.179
same,relative viability,[17]; first compound 0.03162 µM,0.166
same,relative viability,[17]; first compound 0.1 µM,0.134
same,relative viability,[18]; first compound 0.001 µM,0.364
same,relative viability,[18]; first compound 0.003162 µM,0.519
same,relative viability,[18]; first compound 0.01 µM,0.436
same,relative viability,[18]; first compound 0.03162 µM,0.374
same,relative viability,[18]; first compound 0.1 µM,0.18
same,relative viability,[19]; first compound 0.001 µM,0.451
same,relative viability,[19]; first compound 0.003162 µM,0.463
same,relative viability,[19]; first compound 0.01 µM,0.489
same,relative viability,[19]; first compound 0.03162 µM,0.476
same,relative viability,[19]; first compound 0.1 µM,0.3
same,relative viability,[20]; first compound 0.001 µM,0.448
same,relative viability,[20]; first compound 0.003162 µM,0.482
same,relative viability,[20]; first compound 0.01 µM,0.44
same,relative viability,[20]; first compound 0.03162 µM,0.429
same,relative viability,[20]; first compound 0.1 µM,0.37
same,relative viability,[21]; first compound 0.001 µM,0.175
same,relative viability,[21]; first compound 0.003162 µM,0.176
same,relative viability,[21]; first compound 0.01 µM,0.168
same,relative viability,[21]; first compound 0.03162 µM,0.232
same,relative viability,[21]; first compound 0.1 µM,0.237
same,relative viability,[22]; first compound 0.001 µM,0.537
same,relative viability,[22]; first compound 0.003162 µM,0.548
same,relative viability,[22]; first compound 0.01 µM,0.483
same,relative viability,[22]; first compound 0.03162 µM,0.578
same,relative viability,[22]; first compound 0.1 µM,0.415
